Calls of active or inactive are those of the source. No cut-off for these calls is given here. Non-standard residues stand in square brackets, D forms with d. Residues, ends and D or L forms follow the SMILES beside them.
Assays:
IGROV-1 [1] = test: Cytotoxicity against human IGROV1 cells after 72 hrs; format: functional, cell-based; conditions: IGROV-1, 72 h
2008 = test: Cytotoxicity against human 2008 cells; format: functional, cell-based
C13 = test: Cytotoxicity against human C13 cells after 72 hrs; format: functional, cell-based; conditions: C13, 72 h
[2] = target: Thymidylate synthase (Homo sapiens) (UniProt P04818); test: Inhibition of thymidylate synthase in human IGROV1 cell lysate using [5-3H]dUMP as substrate assessed as decrease in residual activity at 5 uM after 60 mins by liquid scintillation counting analysis relative to control
IGROV-1 [3] = test: Effect on TS protein expression in human IGROV1 cells by Western blot analysis; format: functional, cell-based
IGROV-1 [4] = test: Effect on DHFR protein expression in human IGROV1 cells by Western blot analysis; format: functional, cell-based
IGROV-1 [5] = test: Effect on HSP90 protein expression in human IGROV1 cells by Western blot analysis; format: functional, cell-based
IGROV-1 [6] = test: Downregulation of TRAP1 protein levels in human IGROV1 cells by Western blot analysis; format: functional, cell-based

Sequence of Thymidylate synthase (Homo sapiens) (P04818 2-313 limits assumed): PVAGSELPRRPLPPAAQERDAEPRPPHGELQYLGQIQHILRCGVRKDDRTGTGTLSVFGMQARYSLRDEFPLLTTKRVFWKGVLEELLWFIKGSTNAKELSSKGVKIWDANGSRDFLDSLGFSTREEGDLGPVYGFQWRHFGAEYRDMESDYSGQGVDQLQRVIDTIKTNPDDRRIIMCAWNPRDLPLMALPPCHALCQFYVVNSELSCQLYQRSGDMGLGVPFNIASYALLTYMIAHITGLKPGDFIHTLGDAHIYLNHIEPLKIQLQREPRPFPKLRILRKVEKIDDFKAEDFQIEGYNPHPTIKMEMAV

Row | Compound | IC50 (IGROV-1 [1]) [µM] | IC50 2008 [µM] | IC50 (C13) [µM] | inhibition [2] | Activity (IGROV-1 [3]) | Activity (IGROV-1 [4]) | Activity (IGROV-1 [5]) | Activity (IGROV-1 [6])
1 | H-LSCQLYPR-OH | 4.32 | 0.96 to 1.57 | 3.55 to 8.1 | > 30% | – | – | – | –
2 | H-LSPQLYQR-OH | 6.2 | 0.96 to 1.57 | 3.55 to 8.1 | 25% | Active | Active | Active | –
3 | H-LSCPLYQR-OH | 4.32 to 12.1 | 0.96 to 1.57 | 3.55 to 8.1 | 25% | Active | Active | Active | Active
4 | O=c1[nH]cc(F)c(=O)[nH]1 [FLUOROURACIL] | 10.6 | 6 | 12.1 | Active | – | – | – | –
5 | H-LSCQLYQR-OH | 8.2 | 4.6 | 9.5 | – | – | – | – | –
6 | Nc1nc2[nH]cc(CCc3ccc(C(=O)N[C@@H](CCC(=O)O)C(=O)O)cc3)c2c(=O)[nH]1 | – | – | – | – | Active | Active | Active | –
7 | CC(C)C[C@H](NC(=O)[C@@H](CCC(N)=O)NC(=O)[C@H](CS)NC(=O)[C@H](CO)NC(=O)[C@@H](N)CC(C)C)C(=O)N[C@@H](Cc1ccc(O)cc1)C(=O)N[C@@H](CCC(N)=O)C(=O)N[C@@H](CCCNC(=N)N)C(=O)O (H-LSC[dQ]LYQR-OH) | – | – | – | – | – | – | – | Active

From ChEMBL document CHEMBL4229466, “Conformational Propensity and Biological Studies of Proline Mutated LR Peptides Inhibiting Human Thymidylate Synthase and Ovarian Cancer Cell Growth” (J Med Chem, 2018)
